Test results: paper PMC4580393 (British Journal of Cancer, 2015)

Key:
[1] = test system: KRAS mt mCRC; assay: Best overall response by RECIST v1.0, FOLFIRI plus pimasertib second-line; format: in vivo, human; conditions: 45 or 60 mg per day plus FOLFIRI
[2] = ref Awada et al, 2012, cited from earlier work
[3] = test system: human liver microsomes; conditions: in vitro, ref Merck, data on file; cited from earlier work
[4] = Treatment-emergent adverse events, FOLFIRI plus pimasertib; format: in vivo, human
[5] = Single-dose plasma pharmacokinetics of pimasertib with and without FOLFIRI; format: in vivo, human; conditions: for Ratio of AUC(0–∞) test/reference / Ratio of Cmax test/reference / CL/f: median; for Ratio of AUC(0–∞) test/reference / Ratio of Cmax test/reference: day 1 with FOLFIRI / day 8 alone
[6] = Dose-limiting toxicities and MTD of pimasertib combined with FOLFIRI; format: in vivo, human
[7] = Plasma pharmacokinetics of irinotecan and SN-38 with and without pimasertib; conditions: for Ratio of AUC(0–∞) test/reference / Ratio of Cmax test/reference: day 1 with pimasertib / day 15 without pimasertib
[8] = following intravenous administration; no reference given; cited from earlier work
[9] = 45 mg per day pimasertib cohort
[10] = median, irinotecan 180 mg m^−2 infusion, day 15, without pimasertib (reference)
[11] = median, irinotecan 180 mg m^−2 infusion, day 1, with pimasertib (test)

O=C(NC[C@H](O)CO)c1ccncc1Nc1ccc(I)cc1F [pimasertib, Pimasertib]
stable disease maintained for at least 12 weeks, share of the nine SD patients [1]: 66.7% | partial response as best overall response, patients ([1]; efficacy analysis set n=15): 13.3% | progressive disease as best overall response, patients ([1]; efficacy analysis set n=15): 20.0% | stable disease as best overall response, patients ([1]; efficacy analysis set n=15): 60.0% | recommended single-agent dose for phase II trials ([2]; administered continuously): 60 mg twice-daily | dose-limiting toxicities ([2]; single-agent phase I dose-escalation trial): skin rash, acneiform dermatitis, ocular events and stomatitis | effect on 5-FU metabolism [3]: does not alter 5-FU metabolism | Patients with ≥1 pimasertib-related TEAE (by worst grade) ([4]; 45 mg per day (n=10), grade 1/2): 5 | Patients with ≥1 pimasertib-related TEAE (by worst grade) ([4]; 45 mg per day (n=10), grade 3): 5 | Patients with ≥1 pimasertib-related TEAE (by worst grade) ([4]; 45 mg per day (n=10), grade 4): 0 | incidence of grade ≥3 pimasertib-related TEAEs ([4]; 45 mg per day dose): 50.0% | Patients with ≥1 pimasertib-related TEAE (by worst grade) ([4]; 60 mg per day (n=6), grade 1/2): 2 | Patients with ≥1 pimasertib-related TEAE (by worst grade) ([4]; 60 mg per day (n=6), grade 3): 2 | Patients with ≥1 pimasertib-related TEAE (by worst grade) ([4]; 60 mg per day (n=6), grade 4): 2 | incidence of grade ≥3 pimasertib-related TEAEs ([4]; 60 mg per day dose): 66.7% | Patients with ≥1 pimasertib-related TEAE (by worst grade) ([4]; Overall (n=16), grade 1/2): 7 | Patients with ≥1 pimasertib-related TEAE (by worst grade) ([4]; Overall (n=16), grade 3): 7 | Patients with ≥1 pimasertib-related TEAE (by worst grade) ([4]; Overall (n=16), grade 4): 2 | time to resolution of ocular AEs from day of onset ([4]; all events except SRD in two patients): 3 to 139 days | Asthenia, pimasertib-related TEAE, patients ([4]; overall n=16): 37.5% | Diarrhoea, pimasertib-related TEAE, patients ([4]; overall n=16): 62.5% | Serous retinal detachment (SRD), pimasertib-related TEAE, patients ([4]; overall n=16): 37.5% | Skin/rash, pimasertib-related TEAE, patients ([4]; overall n=16): 50% | patients with at least one ocular event during trial treatment ([4]; overall n=16): 43.8% | patients with skin/rash events ([4]; overall n=16): 56.3% | reduction of exposure (AUC0–∞) in the presence of FOLFIRI ([5]; 45 mg per day cohort): 8.3% | reduction of maximum plasma concentration (Cmax) in the presence of FOLFIRI ([5]; 45 mg per day cohort): 16.3% | Ratio of AUC(0–∞) test/reference ([5]; 45 mg per day): 0.917 | Ratio of Cmax test/reference ([5]; 45 mg per day): 0.837 | Ratio of AUC(0–∞) test/reference ([5]; 60 mg per day): 0.825 | Ratio of Cmax test/reference ([5]; 60 mg per day): 0.751 | CL/f ([5]; single 45 mg dose, day 1, with FOLFIRI (test)): 38.7 L/h | CL/f ([5]; single 45 mg dose, day 8, alone (reference)): 34.2 L/h | CL/f ([5]; single 60 mg dose, day 1, with FOLFIRI (test)): 42.1 L/h | CL/f ([5]; single 60 mg dose, day 8, alone (reference)): 44.6 L/h | patients who experienced a DLT ([6]; DLT analysis set, 15 patients, both dose levels): three | DLTs ([6]; first three patients, 45 mg per day): no DLTs

CCc1c2c(nc3ccc(OC(=O)N4CCC(N5CCCCC5)CC4)cc13)-c1cc3c(c(=O)n1C2)COC(=O)[C@]3(O)CC [Irinotecan, irinotecan, reference compound]
reduction of Cmax in the presence of pimasertib [7, 9]: 2.7% | reduction of exposure (AUC0–∞) in the presence of pimasertib [7, 9]: 8.9% | AUC(0-inf) ([7]; human, in vivo, 180 mg m^−2, AUC(0–∞), median, irinotecan 180 mg m^−2 infusion, day 1, with pimasertib (test)): 10600 ng·h/mL | Cmax ([7]; human, in vivo, 180 mg m^−2, Cmax, median, irinotecan 180 mg m^−2 infusion, day 15, without pimasertib (reference)): 2120 ng/mL | Tmax ([7]; human, in vivo, 180 mg m^−2, Tmax, median, irinotecan 180 mg m^−2 infusion, day 1, with pimasertib (test)): 1.5 h | Ratio of AUC(0–∞) test/reference ([7]; median): 0.911 | Ratio of Cmax test/reference ([7]; median): 0.973 | Tmax [7, 10]: 1.54 h

O=c1[nH]cc(F)c(=O)[nH]1 [5-FU, 5-fluorouracil]
mean apparent terminal half-life [8]: ~0.267 h

CCc1c2c(nc3ccc(O)cc13)-c1cc3c(c(=O)n1C2)COC(=O)[C@]3(O)CC [SN-38]
increase in Cmax with coadministration of pimasertib [7, 9]: 11% | reduction of exposure (AUC0–∞) in the presence of pimasertib [7, 9]: 9% | Ratio of AUC(0–∞) test/reference ([7]; median): 0.91 | Ratio of Cmax test/reference ([7]; median): 1.11 | AUC(0–t) [7, 11]: 150 ng·h/mL | AUC(0–∞) [7, 11]: 198 ng·h/mL | Cmax [7, 11]: 20.4 ng/mL | T1/2 [7, 11]: 13.6 h | AUC(0–t) [7, 10]: 146 ng·h/mL | AUC(0–∞) [7, 10]: 206 ng·h/mL | Cmax [7, 10]: 15.1 ng/mL | T1/2 [7, 10]: 15.7 h | Tmax [7, 10]: 1.6 h
